Data as given in paper PMC8868297, “Stapling of Peptides Potentiates the Antibiotic Treatment of Acinetobacter baumannii In Vivo” (Antibiotics, 2022).
Bridge positions count the residues as written; N and C are the ends. Square brackets hold non-standard residues; d marks the D form. Ends that are not written are not given here. Peptide text beside a SMILES is read from it. R8 = C=CCCCCCC[C@@](C)(N)C(=O)O; S5 = C=CCCC[C@](C)(N)C(=O)O

Tests used:
[1] = tested on: A. baumannii 1757; experiment: MIC / checkerboard synergy assay (also with added LPS); format: cell-based, Acinetobacter baumannii; details: mean ± SD; for MIC (compound alone): LB broth, MIC = 90% of growth prevented, OD600 over 12 h; for MIC, + Rd-LPS (F583): LB medium with soluble deep rough LPS 15 µg/ml; for MIC, + Sm-LPS (055:B5): LB medium with soluble smooth LPS 15 µg/ml; for MIC, No supplement: LB medium without supplement (Table S4)
Description: (§1) Minimum inhibitory concentrations of the peptides and antibiotics were determined according to the protocol described by Wiegand et al.. Briefly, two-fold dilution series of cationic peptides in 50 µL volume of LB broth containing 2% DMSO were made in polypropylene 96-well microtiter plates (Ratiolab, L6018123, Dreieich, Germany). The optical density at 600 nm (OD600) of growing bacterial cultures was followed, and at mid-log-phase (OD600 ~0.4–0.5) cultures were diluted to OD600 0.02 and 50 µL was added to the wells, resulting in a total volume of 100 µl, an OD600 of ~0.01 and a DMSO concentration of 1%. An OD600 of ~0.01 accounted for approximately 3 × 10^8 colony forming units per mL (CFU/mL) for A. baumannii, 1 × 10^7 CFU/mL for E. coli and 5 × 10^7 CFU/mL for K. pneumoniae as determined by plate counting.
(§2) In a similar manner, two-fold dilution series of antibiotics were made in polystyrene microtiter plates (Costar, REF3779, Corning NY, United States) in 70 µL volume of LB broth. Then, 50 µL of the antibiotic series was transferred to the peptide containing polypropylene plate, resulting in a checkerboard titration of a peptide on the vertical axis and an antibiotic on the horizontal axis. To some checkerboard assays 15 µg/mL isolated smooth (sm) LPS (from E. coli O55:B5, Sigma-Aldrich, L2880), rough (Ra) LPS (from E. coli EH100, Sigma-Aldrich, L9641) or deep rough (Rd) LPS (from E. coli F583, Sigma-Aldrich, L6893) LPS was added to the LB broth. Mid-log phase cultures were diluted to OD600 0.1 and 10 µL culture was added to each well of the microtiter plate, resulting in a total volume of 110 µL and an OD600 of ~0.01 (~3 × 10^8 CFU/mL), and the OD600 was measured every 15 min for 12 h using the microplate reader. First, the MIC values of the antibiotics alone and the MIC values of the peptides alone were determined as described previously. Similarly, the MIC values of the antibiotics in combination with the different peptides and the MIC values of the peptides in combination with the antibiotics were determined (the fractional inhibitory concentrations (FIC)). […] An FICindex between 0.5 and 1 was considered to be an additive effect.

[2] = tested on: zebrafish larvae; experiment: Toxicity in zebrafish larvae (survival after caudal vein injection); details: survival of uninfected larvae vs vehicle (50% DMSO), five days
Description: Transparent Casper zebrafish (Danio rerio) larvae were infected and treated according to protocols described by Van der Sar et al. and Bernard et al. [43, 44]. In short, zebrafish larvae collected from a laboratory-breeding colony kept at 24 °C and a 12:12 h dark/light regime. Larvae were selected based on morphology according to hours post fertilization (hpf) and kept at 28 °C. All protocols followed the international guidelines on the protection of animals used for scientific purposes specified by the EU Directive 2010/63/EU, which allows zebrafish larvae to be used up to the moment of free-living (5–7 dpf). Larvae were dechorionated at 28 hpf and anaesthetized in 0.2% tricaine methanesulfonate (MS222, Fluka A-5040). Larvae were individually infected with 1 nL, containing approximately 100–150 CFU (1–1.5 CFU/mL), of Gram-negative bacteria via microinjection of the caudal vein as described previously [33]. One hour post infection, larvae were treated with cationic (stapled) peptides, antibiotics or a combination of the two via another microinjection of 1 nL in the caudal vein. To correct dilution of the treatment upon injection in the vein (1 nL in 250 nL zebrafish larvae volume), treatments were diluted in 0.1% phenol red (Sigma-Aldrich, p-0290) in phosphate buffered saline (PBS) to 250 times the concentration as tested in vitro. Zebrafish larvae were kept at 30 °C throughout the experiment and survival of the larvae, based on heartbeat, was determined every 24 h for 5 days.

[3] = tested on: sheep red blood cells; details: sheep RBCs in DMEM, 1 h, 32 °C, OD405; for hemolysis at 50 µM: relative to 1% Triton-X100, negative control polymyxin B nonapeptide
Description: Defibrinated sheep blood was purchased from BioTrading (LOT 21118SG66, Mijdrecht, The Netherlands) and kept at 4 °C. As previously described by Phan et al., red blood cells (RBCs) were pelleted by centrifugation at 600× g for 7 min at 4 °C and gently resuspended in phenol red-free Dulbecco’s Modified Eagle Medium (DMEM, Gibco 21063-029, ThermoFisher Scientific, Waltham MA, United States). This was repeated five times until the supernatant appeared colorless. In the meantime, 10-fold dilution series of the peptides at 50 μM, 5 μM and 0.5 μM in 50 µl DMEM, 1% DMSO were made in polypropylene microtiter plates (Ratiolab, L6018123, Dreieich, Germany). Triton-X100 (1%, Sigma-Aldrich T-8787) and DMSO (10%, Sigma-Aldrich D-8418) were used as positive and negative controls, respectively. Polymyxin B (Sigma-Aldrich, p-1411) and polymyxin B nonapeptide (Sigma-Aldrich, p-2076) were used as reference lytic and non-lytic peptides. Then, 50 µL of RBCs was added to each well. The plate was sealed and incubated at 5% CO2 for one hour at 32 °C, after which the plate was centrifuged at 610× g for 5 min at room temperature. Next, 70 µL supernatant was removed and transferred to a flat-bottomed polystyrene microtiter plate (Costar, REF3779) and the OD405, as a measure of released hemoglobin, was determined using a microplate reader (Synergy H1 Multi-Mode Reader or Synergy HTX Multi-Mode Reader, BioTek). Percentage of hemolysis was calculated using the following equation: (2) % hemolysis=(absorbance test sample)-(absorbance diluent)/(absorbance positive control)-(absorbance diluent)

[4] = circular dichroism; details: 5 mM sodium phosphate; pH 7.5; 20 °C; 7.5 uM
[5] = normal pooled human serum, 100 µM peptide from 10 mM DMSO stock, 37 °C, samples at 0, 15, 60 min, TCA precipitation, LC-MS TIC vs carbamazepine internal standard, triplicate; Figure 2C
Description: The stability measurements were performed in normal pooled human serum (PHS). The respective peptide was diluted to a final concentration of 100 μM in the aforementioned human serum (from 10 mM peptide stocks in DMSO). Then, 100 μM Carbamazepine was used as an internal standard; 60 μL of aforementioned peptide/Carbamazepine solution in PHS was incubated for 1h at 37 °C/750 rpm and 20 μL samples were taken after 0 min, 15 min and 60 min. Next, 1.5 μL of TCA was added to the sample to precipitate serum proteins. The samples were subsequently incubated on ice for 10 min and then centrifuged (12,000× g, 10 min). Then, 5 μL of supernatant was diluted in 20 μL of H2O/MeCN + 0.1% TFA. The sample was subsequently analyzed by LCMS on an Nucleodur C4-column (Macherey Nagel CC125/4 Nucleodur C4 Gravity, 5 µm) using a linear aqueous MeCN gradient containing FA (0.1%, v/v) and TFA (0.01%, v/v) as ion pair reagent (5–95%, 8 min). Peptides were quantified using the total ion count (TIC) of selected molecular ions. Remaining peptide quantities were calculated by normalizing the peptide peak areas using the internal standard peak areas and subsequently comparing the obtained value with the 0 min measurement. All measurements were performed in triplicate.

[6] = tested on: A. baumannii 2196; experiment: MIC / checkerboard synergy assay; format: cell-based, Acinetobacter baumannii; details: compound alone; LB broth, MIC = 90% of growth prevented, OD600 over 12 h; mean ± SD
Description: as §1, §2

[7] = tested on: A. baumannii 1681; experiment: MIC / checkerboard synergy assay; format: cell-based, Acinetobacter baumannii; details: compound alone; LB broth, MIC = 90% of growth prevented, OD600 over 12 h; mean ± SD
Description: as §1, §2

[8] = tested on: K. pneumoniae 821; experiment: MIC / checkerboard synergy assay; format: cell-based, Klebsiella pneumoniae; details: compound alone; LB broth, MIC = 90% of growth prevented, OD600 over 12 h; mean ± SD
Description: as §1, §2

[9] = tested on: K. pneumoniae 613; experiment: MIC / checkerboard synergy assay; format: cell-based, Klebsiella pneumoniae; details: compound alone; LB broth, MIC = 90% of growth prevented, OD600 over 12 h; mean ± SD
Description: as §1, §2

[10] = tested on: K. pneumoniae 94; experiment: MIC / checkerboard synergy assay; format: cell-based, Klebsiella pneumoniae; details: compound alone; LB broth, MIC = 90% of growth prevented, OD600 over 12 h; mean ± SD
Description: as §1, §2

| Compound | MIC (compound alone) [1] | Log2FoldChange compared to vehicle injected [2] | hemolysis at 50 µM [3] | helicity [4] | stability in human serum (in words) [5] | MIC, + Rd-LPS (F583) [1] | MIC, + Sm-LPS (055:B5) [1] | MIC, No supplement [1] | MIC (compound alone) [6] | MIC (compound alone) [7] | hemolysis in the concentration range tested (in words) ([3]; 0.5, 5 and 50 µM) | MIC (compound alone) [8] | MIC (compound alone) [9] | MIC (compound alone) [10] | MIC, + Ra-LPS (EH100) ([1]; LB medium with soluble rough LPS 15 µg/ml) |
| --- | --- | --- | --- | --- | --- | --- | --- | --- | --- | --- | --- | --- | --- | --- | --- |
| CC(C)C[C@H](NC(=O)[C@H](Cc1c[nH]c2ccccc12)NC(=O)[C@H](CCCNC(=N)N)NC(=O)[C@H](CC(C)C)NC(=O)[C@]1(C)CCCC=CCCC[C@](C)(NC(=O)[C@H](CCCNC(=N)N)NC(=O)[C@@H](N)CCCNC(=N)N)C(=O)N[C@@H](Cc2ccccc2)C(=O)N[C@@H](CCCNC(=N)N)C(=O)N[C@@H](CCCNC(=N)N)C(=O)N1)C(N)=O [Peptide L6S1] (H-RR[S5]FRR[S5]LRWL-NH2; staple 3-7) | 1.80 ± 2.68 µM | 0.04 | significantly more hemolytic to the RBCs than the negative control | 28% |  |  |  |  |  |  |  |  |  |  |  |
| CC(C)C[C@H](NC(=O)[C@H](CCCNC(=N)N)NC(=O)[C@@H](N)CCCNC(=N)N)C(=O)N[C@@H](Cc1ccccc1)C(=O)N[C@@H](CCCNC(=N)N)C(=O)N[C@@H](CCCNC(=N)N)C(=O)N[C@@]1(C)CCCC=CCCC[C@@](C)(C(N)=O)NC(=O)[C@H](Cc2c[nH]c3ccccc23)NC(=O)[C@H](CCCNC(=N)N)NC(=O)[C@H](CC(C)C)NC1=O [Peptide L6S2] (H-RRLFRR[S5]LRW[S5]-NH2; staple 7-11) | 0.93 ± 0.69 µM | -1.21 | significantly more hemolytic to the RBCs than the negative control | 19% | highest stabilities |  |  |  |  |  |  |  |  |  |  |
| CC[C@H](C)[C@@H]1NC(=O)[C@H](CCCNC(=N)N)NC(=O)[C@H](CCCNC(=N)N)NC(=O)[C@](C)(NC(=O)[C@H](CC(C)C)NC(=O)[C@H](CCCNC(=N)N)NC(=O)[C@@H](N)CCCNC(=N)N)CCCCCCC=CCCC[C@@](C)(C(N)=O)NC(=O)[C@H](Cc2c[nH]c3ccccc23)NC(=O)[C@H](CCCNC(=N)N)NC(=O)[C@H](CC(C)C)NC1=O [Peptide L6S3] (H-RRL[R8]RRILRW[S5]-NH2; staple 4-11) | 1.47 ± 0.48 µM | -0.40 | did not cause hemolysis | 23% |  |  |  |  |  |  |  |  |  |  |  |
| CC(C)C[C@H](NC(=O)[C@H](Cc1c[nH]c2ccccc12)NC(=O)[C@H](CCCCN)NC(=O)[C@H](CCCCN)NC(=O)[C@]1(C)CCCC=CCCC[C@](C)(NC(=O)[C@H](CCCNC(=N)N)NC(=O)[C@@H](N)CCCCN)C(=O)N[C@@H](C(C)C)C(=O)N[C@@H](CCC(N)=O)C(=O)N[C@@H](CCCNC(=N)N)C(=O)N1)C(=O)N[C@@H](CCCNC(=N)N)C(N)=O [Peptide L8S1] (H-KR[S5]VQR[S5]KKWLR-NH2; staple 3-7) | 12.76 ± 8.91 µM | -0.45 | did not cause hemolysis | 49% |  |  |  |  |  |  |  |  |  |  |  |
| CC[C@H](C)[C@H](NC(=O)[C@H](CCCNC(=N)N)NC(=O)[C@@H](N)CCCCN)C(=O)N[C@H](C(=O)N[C@@H](CCC(N)=O)C(=O)N[C@@H](CCCNC(=N)N)C(=O)N[C@@]1(C)CCCC=CCCC[C@@](C)(C(=O)N[C@@H](CCCNC(=N)N)C(N)=O)NC(=O)[C@H](Cc2c[nH]c3ccccc23)NC(=O)[C@H](CCCCN)NC(=O)[C@H](CCCCN)NC1=O)C(C)C [Peptide L8S2] (H-KRIVQR[S5]KKW[S5]R-NH2; staple 7-11) | 8.69 ± 4.29 µM | 0.11 | did not cause hemolysis | 25% |  |  |  |  |  |  |  |  |  |  |  |
| CC[C@H](C)[C@@H]1NC(=O)[C@H](CCCNC(=N)N)NC(=O)[C@H](CCC(N)=O)NC(=O)[C@](C)(NC(=O)[C@@H](NC(=O)[C@H](CCCNC(=N)N)NC(=O)[C@@H](N)CCCCN)[C@@H](C)CC)CCCCCCC=CCCC[C@@](C)(C(=O)N[C@@H](CCCNC(=N)N)C(N)=O)NC(=O)[C@H](Cc2c[nH]c3ccccc23)NC(=O)[C@H](CCCCN)NC(=O)[C@H](CCCCN)NC1=O [Peptide L8S3] (H-KRI[R8]QRIKKW[S5]R-NH2; staple 4-11) | 0.57 ± 0.23 µM | -0.08 | significantly more hemolytic to the RBCs than the negative control | 25% | highest stabilities |  |  |  |  |  |  |  |  |  |  |
| KRIVQRIKKWLR-NH2 [Peptide L8] | 2.53 ± 1.02 µM | -0.63 |  | 16% |  | 10.83 ± 8.12 µM | 0.53 ± 0.59 µM | 8.78 ± 11.15 µM | 8,54±5,31 µM | 5,85±0,47 µM | did not cause hemolysis | 43,37±28,38 µM | 23,74±29,65 µM | 165,45±1,91 µM |  |
| RRLFRRILRWL-NH2 [Peptide L6] | 1.1 ± 1.20 µM | -0.04 | up to 50% | 15% |  | 0.34 ± 0.40 µM | 9.85 ± 16.34 µM | 1.2 ± 0.43 µM | 0,91±0,59 µM | 0,66±0,13 µM |  | 2,44±2,17 µM | 0,65±0,15 µM | 0,63±0,29 µM | 2.50 ± 3.83 µM |
